US11478461B2, “[1.1.1] bicyclo compounds as indoleamine 2,3-dioxygenase inhibitors” (Merck Sharp & Dohme Corp., priority 2018, dated 2022)

These compounds were tested against IDO1 (Homo sapiens, UniProt P14902) (assay: IDO1 Cellular Assay in Hela Cells Stimulated with IFNγ). Conditions: IFNγ 100 ng/mL, 300 uM L-tryptophan, about 48 hours, fluorescence readout, read-out: IDO1 HELA Cell Assay, IC50.
Format: cell-based
Protocol: Biological Assays IDO1 Cellular Assay in Hela Cells Stimulated with IFNγ
Hela cells were cultured in complete Hela culture medium ([…], 10% heat-inactivated fetal bovine serum) and expanded to about 1×10^9 cells. The cells were then collected and frozen down at 10×10^6 cells/vial in 1 mL frozen medium (90% complete Hela culture medium, 10% DMSO).
Compounds to be tested were serially diluted in ten 3-fold steps in DMSO starting from 10 mM DMSO stocks in Echo low volume plate(s). Compound dilutions or DMSO alone were then dispensed from the dilution plate(s) into Greiner black 384-well assay plate(s) (catalog #781086, 50 nL/well) using an Echo 550 acoustic liquid handler (Labcyte).
Frozen Hela cells were thawed and transferred into Hela assay medium (99% complete Hela culture medium, 1% Pen/Strep) with 20 mL medium/vial of cells. The cells were spun down at 250 g in a table top centrifuge for 5 min and suspended in same volume of Hela assay medium. […] Sterile L-tryptophan were added to the cells with final concentration of 300 uM L-tryptophan. A small aliquot (2 mL/plate) of Hela cells were set aside and were not treated with IFNγ, to serve as the Max-E control. The rest of Hela cells were added with sterile IFNγ (Cat #285-IF, R & D systems) with a final concentration of 100 ng/mL.
Hela cells with and without IFNγ were dispensed to the respective wells of 384-well assay plates containing the compounds. The plates were incubated for about 48 hours at a 37° C., 5% CO2 incubator. Afterwards, 12 μL of 0.5 M methyl isonipecotate in dimethyl sulfoxide were added into each well and the plates were sealed and incubated at 37° C. without CO2 overnight. The plates were centrifuged for 1 min at 200×g. The resulting fluorescence was measured in a Spectramax plate reader (Molecular Devices) with a 400 nm excitation filter and a 510 nm emission filter.
Potencies were calculated by […] least squares fit to the four parameter logistic IC50 equation.

Chain of IDO1 (P14902 whole entry): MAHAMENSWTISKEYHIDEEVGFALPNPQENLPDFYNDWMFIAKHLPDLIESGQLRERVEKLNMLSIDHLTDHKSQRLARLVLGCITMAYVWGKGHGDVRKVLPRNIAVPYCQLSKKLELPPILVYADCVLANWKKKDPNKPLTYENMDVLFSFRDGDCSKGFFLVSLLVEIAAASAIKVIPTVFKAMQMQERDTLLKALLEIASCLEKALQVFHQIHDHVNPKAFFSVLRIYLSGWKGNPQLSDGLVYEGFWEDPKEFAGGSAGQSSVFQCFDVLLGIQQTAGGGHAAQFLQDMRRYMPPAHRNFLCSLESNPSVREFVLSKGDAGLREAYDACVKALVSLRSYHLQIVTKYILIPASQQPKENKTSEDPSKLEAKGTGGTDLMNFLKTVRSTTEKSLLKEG

SMILES | IC50
C[C@H](C(=O)Nc1ccc(F)cc1)C12CC(NC(=O)c3ccc(F)c(Cl)c3)(C1)C2 [Example 48, 3-chloro-4-fluoro-N-[3-[(1S)-2-(4-fluoroanilino)-1-methyl-2-oxo-ethyl]-1-bicyclo[1.1.1]pentanyl]benzamide] | 0.00172 µM
C[C@H](C(=O)Nc1ccc(F)c(C(F)(F)F)c1)C12CC(NC(=O)c3ccc(Cl)c(Cl)c3)(C1)C2 [Example 95, (S)-3,4-dichloro-N-(3-(1-((4-fluoro-3-(trifluoromethyl)phenyl)amino)-1-oxopropan-2-yl)bicyclo[1.1.1]pentan-1-yl)benzamide] | 0.0606 µM
C[C@H](C(=O)Nc1ccc(F)c(Cl)c1)C12CC(NC(=O)c3ccc(Cl)c(Cl)c3)(C1)C2 [Example 96, (S)-3,4-dichloro-N-(3-(1-((3-chloro-4-fluorophenyl)amino)-1-oxopropan-2-yl)bicyclo[1.1.1]pentan-1-yl)benzamide] | 0.0784 µM
CC(C(=O)Nc1ccc(F)cc1)C12CC(NC(=O)c3cc(C4CC4)on3)(C1)C2 (stereo not shown) [Example 120, 5-cyclopropyl-N-[3-[2-(4-fluoroanilino)-1-methyl-2-oxo-ethyl]-1-bicyclo[1.1.1]pentanyl]isoxazole-3-carboxamide] | 0.125 µM
CC(C)(NC(=O)c1ccc(F)cc1)C12CC(NC(=O)c3ccc(Cl)c(Cl)c3)(C1)C2 [Example 103, 3,4-Dichloro-N-(3-(2-(4-fluorobenzamido)propan-2-yl)bicyclo[1.1.1]pentan-1-yl)benzamide] | 0.0469 µM
C[C@@H](C(=O)Nc1ccc(F)c(F)c1)C12CC(NC(=O)c3ccc(Cl)c(Cl)c3)(C1)C2 [Example 91, (R)-3,4-dichloro-N-(3-(1-((3,4-difluorophenyl)amino)-1-oxopropan-2-yl)bicyclo[1.1.1]pentan-1-yl)benzamide] | 0.122 µM
C[C@@H](C(=O)Nc1ccc(F)cc1)C12CC(NC(=O)c3cccc(Cl)n3)(C1)C2 [Example 33, (R)-6-Chloro-N-(3-(1-((4-fluorophenyl)amino)-1-oxopropan-2-yl)bicyclo[1.1.1]pentan-1-yl)picolinamide] | 7.18 µM
Cc1ccc(C(=O)NC23CC([C@@H](C)C(=O)Nc4ccc(F)cc4)(C2)C3)cc1Cl [Example 44, 3-chloro-N-[3-[(1R)-2-(4-fluoroanilino)-1-methyl-2-oxo-ethyl]-1-bicyclo[1.1.1]pentanyl]-4-methyl-benzamide] | 0.00228 µM
Cc1nc(C(=O)NC23CC(C(C)C(=O)Nc4ccc(F)cc4)(C2)C3)cs1 (stereo not shown) [Example 123, N-[3-[2-(4-fluoroanilino)-1-methyl-2-oxo-ethyl]-1-bicyclo[1.1.1]pentanyl]-2-methyl-thiazole-4-carboxamide] | 0.147 µM
CC(C(=O)Nc1ccc(F)cc1)C12CC(NC(=O)c3cccnc3)(C1)C2 (stereo not shown) [Example 142, N-[3-[2-(4-fluoroanilino)-1-methyl-2-oxo-ethyl]-1-bicyclo[1.1.1]pentanyl]pyridin-1-ium-3-carboxamide] | 0.418 µM
C[C@H](C(=O)Nc1ccc(F)cc1)C12CC(NC(=O)c3cnc(Cl)c(Cl)c3)(C1)C2 [Example 63, 5,6-dichloro-N-[3-[(1S)-2-(4-fluoroanilino)-1-methyl-2-oxo-ethyl]-1-bicyclo[1.1.1]pentanyl]pyridin-1-ium-3-carboxamide] | 0.0114 µM
CC(C(=O)Nc1ccc(F)cc1)C12CC(NC(=O)c3ccn4ccccc34)(C1)C2 (stereo not shown) [Example 127, N-[3-[2-(4-fluoroanilino)-1-methyl-2-oxo-ethyl]-1-bicyclo[1.1.1]pentanyl]indolizine-1-carboxamide] | 0.186 µM
C[C@@H](C(=O)Nc1ccc(F)cc1)C12CC(NC(=O)c3cccc(C(F)(F)F)c3)(C1)C2 [Example 42, N-[3-[(1R)-2-(4-fluoroanilino)-1-methyl-2-oxo-ethyl]-1-bicyclo[1.1.1]pentanyl]-3-(trifluoromethyl)benzamide] | 0.00502 µM
CCc1ccnc(C(=O)NC23CC(C(C)C(=O)Nc4ccc(F)cc4)(C2)C3)c1 (stereo not shown) [Example 117, 4-ethyl-N-[3-[2-(4-fluoroanilino)-1-methyl-2-oxo-ethyl]-1-bicyclo[1.1.1]pentanyl]pyridin-1-ium-2-carboxamide] | 0.0735 µM
C[C@H](C(=O)Nc1ccc(F)cc1)C12CC(NC(=O)c3ccnc(C(F)(F)F)c3)(C1)C2 [Example 66, N-[3-[(1S)-2-(4-fluoroanilino)-1-methyl-2-oxo-ethyl]-1-bicyclo[1.1.1]pentanyl]-2-(trifluoromethyl)pyridin-1-ium-4-carboxamide] | 0.0131 µM
CC(NC(=O)c1ccc(F)cc1)C12CC(NC(=O)c3ccc(Cl)c(Cl)c3)(C1)C2 (single isomer, unassigned) [Example 21, 3,4-Dichloro-N-(3-(1-(4-fluorobenzamido)ethyl)bicyclo [1.1.1]pentan-1-yl) Benzamide] | 0.908 µM
C[C@H](C(=O)Nc1ccc(F)cc1)C12CC(NC(=O)c3ccc(C(F)(F)F)nc3)(C1)C2 [Example 146, (S)-N-(3-(1-((4-fluorophenyl)amino)-1-oxopropan-2-yl)bicyclo[1.1.1]pentan-1-yl)-6-(trifluoromethyl)nicotinamide] | 0.218 µM

Further compounds by falling IC50, results first:

IC50 | SMILES
0.194 µM | CC(C(=O)Nc1ccc(F)cc1)C12CC(NC(=O)Cc3ccccc3C(F)(F)F)(C1)C2 (stereo not shown) [Example 128, N-(4-fluorophenyl)-2-[3-[[2-[2-(trifluoromethyl)phenyl]acetyl]amino]-1-bicyclo[1.1.1]pentanyl]propanamide]
0.111 µM | C[C@H](C(=O)Nc1cccc(C(F)(F)F)c1)C12CC(NC(=O)c3ccc(Cl)c(Cl)c3)(C1)C2 [Example 99, (S)-3,4-dichloro-N-(3-(1-oxo-1-((3-(trifluoromethyl)phenyl)amino)propan-2-yl)bicyclo[1.1.1]pentan-1-yl)benzamide]
0.098 µM | COc1cc(C(=O)NC23CC([C@H](C)C(=O)Nc4ccc(F)cc4)(C2)C3)ccc1F [Example 67, 4-fluoro-N-[3-[(1S)-2-(4-fluoroanilino)-1-methyl-2-oxo-ethyl]-1-bicyclo[1.1.1]pentanyl]-3-methoxy-benzamide]
0.0404 µM | CC(C(=O)Nc1ccc(F)cc1)C12CC(NC(=O)c3cc(Cl)ccn3)(C1)C2 (stereo not shown) [Example 112, 4-chloro-N-[3-[2-(4-fluoroanilino)-1-methyl-2-oxo-ethyl]-1-bicyclo[1.1.1]pentanyl]pyridin-1-ium-2-carboxamide]
0.0303 µM | C[C@H](C(=O)Nc1ccc(F)cc1)C12CC(NC(=O)Nc3ccc(F)c(F)c3)(C1)C2 [Example 82, (S)-2-(3-(3-(3,4-difluorophenyl)ureido)bicyclo[1.1.1]pentan-1-yl)-N-(4-fluorophenyl)propanamide]
0.0269 µM | C[C@H](C(=O)Nc1ccc(F)cc1)C12CC(NC(=O)c3ccc(Cl)c(Cl)n3)(C1)C2 [Example 149, (S)-5,6-dichloro-N-(3-(1-((4-fluorophenyl)amino)-1-oxopropan-2-yl)bicyclo[1.1.1]pentan-1-yl)picolinamide]
0.011 µM | Cc1ccc(C(=O)NC23CC([C@H](C)C(=O)Nc4ccc(F)cc4)(C2)C3)nc1Cl [Example 61, 6-chloro-N-[3-[(1S)-2-(4-fluoroanilino)-1-methyl-2-oxo-ethyl]-1-bicyclo[1.1.1]pentanyl]-5-methyl-pyridin-1-ium-2-carboxamide]
0.002 µM | C[C@@H](C(=O)Nc1ccc(F)cc1)C12CC(NC(=O)c3cccc(Cl)c3F)(C1)C2 [Example 38, 3-chloro-2-fluoro-N-[3-[(1R)-2-(4-fluoroanilino)-1-methyl-2-oxo-ethyl]-1-bicyclo[1.1.1]pentanyl]benzamide]
